Measured values reported in US20040009485A1, “Cellular arrays for the identification of altered gene expression” (priority 2002, published 2004).

What was measured:
luxCDABE gene fusions = experiment: Retest of nalidixic acid upregulated gene fusions in liquid medium; format: cell-based, E. coli; conditions: for Liquid expt. NA/LB t = 2 hr: at conc of max induction; for # of conc with >1.5 fold up: seven conc 80-1.2 μg/ml
Experimental: Several concentrations of nalidixic acid were used because the differences in responses between liquid and solid growth were not known. Light production of 100 μl duplicate cultures at 37° C. was quantitated using a 96 well plate luminometer (Luminoskan Ascent, Labsystems). […] It should be noted that the liquid medium tests were not corrected for growth inhibition by nalidixic acid.

[1] = tested on: luxCDABE gene fusions in lexAind host; experiment: Mitomycin C and nalidixic acid responses in lexAind host; format: cell-based, E. coli; conditions: for NA Ratio, 2 hr 10 ug/ml: lexAind host
Experimental: In addition, the effect of a lexAind mutation was tested to determine if any of these were part of the SOS regulon. The expectation is that SOS regulon member will be induced by both nalidixic acid and mitomycin C in a manner that is dependent on lexA function (Walker, G. C., (1996) Escherichia coli and Salmonella: Cellular and Molecular Biology ASM Press). […] This is consistent with the observation of upregulation of the b1728 mRNA transcript upon mitomycin C treatment in a LexA dependent fashion (Fernández de Henestrosa et al. (2000). Mol. Microbiol. 35:1560-1572). Likewise, two Gene fusions, those to oraA and yigN were identified is new members of the SOS regulon (Table 16). […] Negative, non-DNA damage responsive gene fusions were also included (Table 16).

[2] = 1pxA 1pxB rnhB dnaE fusion (lux-a.pk061.c3)
[3] = dinG ybiB fusion (lux-a.pk0024.f5)
[4] = frvR frvX frvB frvA fusion (lux-a.pk046.e6)
[5] = yfhJ fdx hscA yfhE fusion (lux-a.pk0019.g2)

## CCn1cc(C(=O)O)c(=O)c2ccc(C)nc21 [Nalidixic acid, nalidixic acid]
luxCDABE gene fusions; [2]
  Nal conc of max induction in liquid: 2.5 µg/mL
  Liquid expt. NA/LB t = 2 hr: 1.82
  # of conc with >1.5 fold up: 3
luxCDABE gene fusions; b1728 fusion (lux-a.pk033.c5)
  Nal conc of max induction in liquid: 5 µg/mL
  Liquid expt. NA/LB t = 2 hr: 3.67
  # of conc with >1.5 fold up: 7
luxCDABE gene fusions; b1936 fusion (lux-a.pk0019.g1)
  Nal conc of max induction in liquid: 10 µg/mL
  Liquid expt. NA/LB t = 2 hr: 2.34
  # of conc with >1.5 fold up: 6
luxCDABE gene fusions; [3]
  Nal conc of max induction in liquid: 5 µg/mL
  Liquid expt. NA/LB t = 2 hr: 4.18
  # of conc with >1.5 fold up: 6
luxCDABE gene fusions; dinP fusion (lux-a.pk055.a3)
  Nal conc of max induction in liquid: 5 µg/mL
  Liquid expt. NA/LB t = 2 hr: 7.60
  # of conc with >1.5 fold up: 7
luxCDABE gene fusions; [4]
  Nal conc of max induction in liquid: 20 µg/mL
  Liquid expt. NA/LB t = 2 hr: 1.46
  # of conc with >1.5 fold up: 0
luxCDABE gene fusions; fusion (lux-a.pk0015.d6)
  Nal conc of max induction in liquid: 20 µg/mL
  Liquid expt. NA/LB t = 2 hr: 2.71
  # of conc with >1.5 fold up: 6
luxCDABE gene fusions; oraA fusion (lux-a.pk058.f5)
  Nal conc of max induction in liquid: 10 µg/mL
  Liquid expt. NA/LB t = 2 hr: 7.19
  # of conc with >1.5 fold up: 7
luxCDABE gene fusions; yaaF fusion (lux-a.pk031.e7)
  Nal conc of max induction in liquid: 2.5 µg/mL
  Liquid expt. NA/LB t = 2 hr: 1.85
  # of conc with >1.5 fold up: 3
luxCDABE gene fusions; [5]
  Nal conc of max induction in liquid: 1.2 µg/mL
  Liquid expt. NA/LB t = 2 hr: 1.02
  # of conc with >1.5 fold up: 0
luxCDABE gene fusions; yigN fusion (lux-a.pk046.f11)
  Nal conc of max induction in liquid: 1.2 µg/mL
  Liquid expt. NA/LB t = 2 hr: 2.54
  # of conc with >1.5 fold up: 5
[1]; [2]
  NA Ratio, 2 hr 10 ug/ml: 2.39
[1]; b1728 fusion (lux-a.pk033.c5)
  NA Ratio, 2 hr 10 ug/ml: 0.40
[1]; b1936 fusion (lux-a.pk0019.g1)
  NA Ratio, 2 hr 10 ug/ml: 1.55
[1]; [3]
  NA Ratio, 2 hr 10 ug/ml: 0.97
[1]; fusion (lux-a.pk0015.d6)
  NA Ratio, 2 hr 10 ug/ml: 2.29
[1]; lacZ fusion (65.d4), negative control
  NA Ratio, 2 hr 10 ug/ml: 1.05
[1]; lexAind host strain (FIG. 9)
  induction of b1728 promoter-luxCDABE fusion: not induced
[1]; oraA fusion (lux-a.pk058.f5)
  NA Ratio, 2 hr 10 ug/ml: 1.06
[1]; yaaF fusion (lux-a.pk031.e7)
  NA Ratio, 2 hr 10 ug/ml: 1.19
[1]; yciG fusion (lux-a.pk006.b4), negative control
  NA Ratio, 2 hr 10 ug/ml: 0.67
[1]; yigN fusion (lux-a.pk046.f11)
  NA Ratio, 2 hr 10 ug/ml: 0.59
